In experiment [1] the target is T1, Alpha-1B adrenergic receptor (Homo sapiens, UniProt P35368).
T1 sequence (P35368 whole entry): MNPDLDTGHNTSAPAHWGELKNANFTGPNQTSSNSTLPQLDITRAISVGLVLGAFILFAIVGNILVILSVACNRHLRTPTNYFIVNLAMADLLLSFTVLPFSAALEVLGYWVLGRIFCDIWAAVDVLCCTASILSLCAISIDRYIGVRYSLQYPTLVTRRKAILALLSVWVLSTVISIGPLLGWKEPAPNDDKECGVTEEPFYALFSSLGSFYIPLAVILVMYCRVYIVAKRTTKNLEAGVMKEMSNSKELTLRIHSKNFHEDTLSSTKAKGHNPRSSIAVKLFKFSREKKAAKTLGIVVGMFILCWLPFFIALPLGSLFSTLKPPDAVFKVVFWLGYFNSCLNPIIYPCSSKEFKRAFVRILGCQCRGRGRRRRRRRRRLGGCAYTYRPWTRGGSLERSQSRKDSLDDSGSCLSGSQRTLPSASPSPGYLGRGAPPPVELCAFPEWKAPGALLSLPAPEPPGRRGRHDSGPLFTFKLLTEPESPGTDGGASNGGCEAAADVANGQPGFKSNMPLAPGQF

Experiment [2] addresses T2, Alpha-2C adrenergic receptor (Rattus norvegicus, UniProt P22086).
T2 sequence (P22086 whole entry): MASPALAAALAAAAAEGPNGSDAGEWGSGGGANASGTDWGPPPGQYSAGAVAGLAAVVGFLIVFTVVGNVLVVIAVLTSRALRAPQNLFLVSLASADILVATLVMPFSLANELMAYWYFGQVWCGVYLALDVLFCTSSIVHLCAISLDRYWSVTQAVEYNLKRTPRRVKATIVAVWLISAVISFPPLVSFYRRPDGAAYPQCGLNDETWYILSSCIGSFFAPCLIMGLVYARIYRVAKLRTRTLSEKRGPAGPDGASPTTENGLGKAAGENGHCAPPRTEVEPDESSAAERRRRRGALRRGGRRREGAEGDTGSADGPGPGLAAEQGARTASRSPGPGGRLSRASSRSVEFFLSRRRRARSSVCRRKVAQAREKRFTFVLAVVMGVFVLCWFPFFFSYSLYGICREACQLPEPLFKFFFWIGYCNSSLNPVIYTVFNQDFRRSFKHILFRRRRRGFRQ

The target in the next experiment is D(2) dopamine receptor (Rattus norvegicus, UniProt P61169).
Experiment [3] addresses T3, Alpha-1D adrenergic receptor (Homo sapiens, UniProt P25100).
T3 sequence (P25100 whole entry): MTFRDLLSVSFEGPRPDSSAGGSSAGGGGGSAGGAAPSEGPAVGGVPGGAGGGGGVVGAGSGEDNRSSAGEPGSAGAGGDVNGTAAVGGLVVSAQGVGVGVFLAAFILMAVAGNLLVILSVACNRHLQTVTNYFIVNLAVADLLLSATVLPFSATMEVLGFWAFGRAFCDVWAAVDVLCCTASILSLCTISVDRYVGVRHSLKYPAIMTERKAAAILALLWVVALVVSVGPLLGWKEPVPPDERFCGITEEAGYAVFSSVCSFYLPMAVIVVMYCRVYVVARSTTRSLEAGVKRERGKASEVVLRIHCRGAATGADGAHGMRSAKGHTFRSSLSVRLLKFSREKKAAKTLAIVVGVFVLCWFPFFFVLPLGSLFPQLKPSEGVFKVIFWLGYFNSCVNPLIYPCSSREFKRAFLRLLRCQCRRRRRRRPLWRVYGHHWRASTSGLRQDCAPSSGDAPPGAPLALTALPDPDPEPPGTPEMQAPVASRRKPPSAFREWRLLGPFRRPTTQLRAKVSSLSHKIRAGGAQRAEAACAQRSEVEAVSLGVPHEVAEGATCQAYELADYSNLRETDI

In experiment [4] the target is T4, Alpha-1A adrenergic receptor (Homo sapiens, UniProt P35348).
T4 sequence (P35348 whole entry): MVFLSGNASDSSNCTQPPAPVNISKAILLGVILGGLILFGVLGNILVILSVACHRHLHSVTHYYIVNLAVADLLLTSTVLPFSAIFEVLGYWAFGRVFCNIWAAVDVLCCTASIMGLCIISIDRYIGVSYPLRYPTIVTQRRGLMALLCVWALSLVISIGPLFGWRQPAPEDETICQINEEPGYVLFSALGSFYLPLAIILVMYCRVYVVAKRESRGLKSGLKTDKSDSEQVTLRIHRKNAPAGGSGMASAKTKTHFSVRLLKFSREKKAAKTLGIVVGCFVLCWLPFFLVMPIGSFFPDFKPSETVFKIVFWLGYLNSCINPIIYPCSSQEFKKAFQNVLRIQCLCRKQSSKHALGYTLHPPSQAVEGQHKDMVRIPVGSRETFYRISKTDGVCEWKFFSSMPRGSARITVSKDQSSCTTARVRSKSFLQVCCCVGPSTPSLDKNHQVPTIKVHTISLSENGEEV

The target in experiment [5] is T5, 5-hydroxytryptamine receptor 1A (Homo sapiens, UniProt P08908).
T5 sequence (P08908 whole entry): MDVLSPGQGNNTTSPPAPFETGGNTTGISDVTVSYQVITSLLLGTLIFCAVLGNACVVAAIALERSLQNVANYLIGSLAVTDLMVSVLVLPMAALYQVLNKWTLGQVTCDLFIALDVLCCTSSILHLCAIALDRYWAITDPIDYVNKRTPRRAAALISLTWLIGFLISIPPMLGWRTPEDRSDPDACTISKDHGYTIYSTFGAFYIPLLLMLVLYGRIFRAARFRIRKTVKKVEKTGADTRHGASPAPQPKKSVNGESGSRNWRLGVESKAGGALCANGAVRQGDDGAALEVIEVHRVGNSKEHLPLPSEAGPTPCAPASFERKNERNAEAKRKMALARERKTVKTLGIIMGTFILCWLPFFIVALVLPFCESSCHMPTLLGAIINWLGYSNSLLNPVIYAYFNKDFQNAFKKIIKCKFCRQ

In BindingDB's records for doi:10.1124/jpet.105.087809 (Universit&Aagrove, 2005) one finds Ki data, which are given here for five compounds.

pKi: −log10 of the molar value.

Chain of D(2) dopamine receptor (P61169 whole entry): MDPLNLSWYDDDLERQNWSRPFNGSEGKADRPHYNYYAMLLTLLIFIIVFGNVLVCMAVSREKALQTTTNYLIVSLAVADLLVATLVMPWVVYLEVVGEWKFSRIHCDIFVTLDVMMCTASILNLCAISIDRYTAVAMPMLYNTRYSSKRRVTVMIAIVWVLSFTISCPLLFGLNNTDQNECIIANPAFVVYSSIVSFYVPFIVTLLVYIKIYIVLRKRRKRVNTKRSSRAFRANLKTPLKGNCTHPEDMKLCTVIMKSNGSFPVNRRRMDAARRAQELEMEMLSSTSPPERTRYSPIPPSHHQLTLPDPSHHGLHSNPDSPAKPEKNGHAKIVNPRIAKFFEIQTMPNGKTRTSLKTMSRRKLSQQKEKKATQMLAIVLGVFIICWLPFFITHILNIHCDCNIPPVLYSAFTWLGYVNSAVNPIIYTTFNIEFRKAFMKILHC

`COc1ccccc1N1CCN(CCN(C(=O)C2CCCCC2)c2ccccn2)CC1`: the pKi – broadly, the negative decadic logarithm of the Ki, by convention in mol/L – was 6.18 in experiment [1], 5.90 in experiment [2] and 6.46 at D(2) dopamine receptor.
As for `O=C(CCCN1CCC2(CC1)C(=O)NCN2c1ccccc1)c1ccc(F)cc1` [8-[4-(4-fluorophenyl)-4-oxidanylidene-butyl]-1-phenyl-1,3,8-triazaspiro[4.5]decan-4-one], the pKi in experiment [3] was 8.08; in experiment [4] it was 7.69.
For `COc1ccccc1N1CCN(CCN(C(=O)C2CCCCC2)c2ccccc2[N+](=O)[O-])CC1` [N-[2-[4-(2-methoxyphenyl)-1-piperazinyl]-ethyl]-N-(2-nitrophenyl)cyclohexanecarboxamide], the pKi was less than 5.00 in experiment [2] and 6.06 on D(2) dopamine receptor.
`COc1ccccc1N1CCN(CCN(C(=O)C2CCCCC2)c2ccccc2OC)CC1` [Rec 27/0074]: the pKi was 8.38 in experiment [3]; 9.05 in experiment [5]; 8.99 in experiment [1]; 8.29 in experiment [4]; less than 5.00 in experiment [2]; 6.50 on D(2) dopamine receptor.
On to `COc1ccc(Br)c(N2CCN(CCN(C(=O)C3CCCCC3)c3ccccc3OC(F)(F)F)CC2)c1` [Rec 27/0224], for which the pKi in experiment [3] is 6.14; in experiment [5] it was 8.98; in experiment [1], 6.19; in experiment [4], 6.65; in experiment [2] it was less than 5.00; on D(2) dopamine receptor it was 5.32.
